Key:
[1] = molecular target: His-tagged LptB2FG (ablLptB2FG) in the presence of LPS (Acinetobacter baylyi, UniProt Q6FFD6+Q6FFD7); test: biochemical; format: binding
Experimental: The binding of radioligand [^3H]-RO7223280 to ablLptB2FG and ablLptB2FGC was measured by bead-based SPA. All steps were performed in SEC buffer (20 mM Tris pH 7.5, 300 mM NaCl, 5% glycerol, 0.5 mM TCEP, 0.05% DDM ± 10 µM E.coli J5 LPS(Rc) […] (Enzo Life Sciences)) and at 4 °C unless otherwise indicated. Purified protein was first incubated with Copper PVT HIS-tag beads (Perkin Elmer) for 1.5 h under gentle rotation. Twelve radioligand concentrations were added to the PVT–protein mix and incubated for another 30 min. […] The SPA plates were sealed (TopSeal, Perkin Elmer) and stored at 4 °C overnight. Before the measurement, plates were mixed on a shaker for 20 min, 750 rpm at room temperature and the seal was thoroughly wiped with antistatic spray to reduce electrostatic events. Scintillation data were recorded with a Topcount NXT C384, in the form of three independent replicates each consisting of three technical triplicates. Specific binding was calculated by subtracting non-specific binding raw counts from total binding raw counts. The dissociation constant Kd and standard deviation of the three independent replicates are reported and were calculated by the GraphPad Prism ‘One site – specific binding’ tool.
Displacement values were normalized by including nine wells containing […] (defined as 100% competition) and nine wells containing 8 uM radioligand only (defined as 0% competition). […] The Hill coefficient was used as a quality control metric (theoretically, nH = 1 for a 1:1 competitive inhibitor) and determined with the ‘[Inhibitor] vs. response -- Variable slope (four parameters)’ tool.

[2] = system: LptB2FGΔTM-LptC; test: LPS release assay, LptB2FG-ΔTM-C; format: biochemical, Acinetobacter baylyi; conditions: complex lacking LptC TM helix
Experimental: (§1) Proteoliposomes were prepared as described previously. Aqueous E. coli polar lipid extract (Avanti Polar Lipids) (30 mg ml^−1) and aqueous LPS from E. coli EH100 (Ra mutant; Sigma) (2 mg ml^−1) were sonicated briefly for homogenization. For experiments testing the effect of LPS structure, we used LPS isolated from either GKM374 (BL21DE3 eptA::catR arnA::kanR eptC::gentR) or TXM418 (BL21DE3 eptA::catR arnA::FRT eptB::gentR lpxM::kanR) as described previously. A mixture of 20 mM Tris-HCl (pH 8.0), 150 mM NaCl, 7.5 mg ml^−1 of E. coli polar lipids, 0.5 mg ml^−1 of LPS and 0.25% DDM was prepared and kept on ice for 10 min. Purified LptB2FGC or LptB2FG was added to a final concentration of 0.86 μM and the mixture was left on ice for 20 min. The mixture was diluted 100-fold with cold 20 mM Tris-HCl (pH 8.0) and 150 mM NaCl and kept on ice for 20 min. The proteoliposomes were pelleted (300,000g, 2 h, 4 °C), resuspended in 20 mM Tris-HCl (pH 8.0) and 150 mM NaCl, diluted 100× and centrifuged (300,000g, 2 h, 4 °C). The pellets were resuspended in a mixture of 20 mM Tris-HCl (pH 8.0), 150 mM NaCl and 10% glycerol (250 μl per 100 μl of the original predilution solution), homogenized by sonication, flash frozen and stored at −80 °C until use.
LptC(ΔTM) was purified largely as previously described. Briefly, Bl21 (λDE3) E. coli cells containing pET22/42-LptC(ΔTM)-His7 were grown to an OD600 of approximately 0.6 at 37 °C in LB media containing 50 μg ml^−1 of carbenicillin. Cells were then induced with 50 μM IPTG; allowed to grow for 2 h; harvested and resuspended in lysis buffer (50 mM Tris pH 7.4, 300 mM NaCl, 0.1 mM EDTA). Lysozyme, DNaseI and PMSF were added to final concentrations of 100 µg ml^−1, 50 µg ml^−1 and 1 mM, respectively. Cells were homogenized and subjected to passage through an EmulsiFlex-C3 high-pressure cell disruptor three times. The cell lysate was centrifuged (10,000g, 10 min) and the supernatant was further centrifuged (100,000g, 1 h). […]
The amounts of release of LPS from proteoliposomes to LptA were measured as previously described. […]

[3] = system: LptB2FG; test: ATPase assay (molybdate), LptB2FG proteoliposomes; format: biochemical, Acinetobacter baylyi; conditions: LptB2FG liposomes, in presence of LPS
Experimental: as §1
ATPase assays were done using a modified molybdate method, as previously reported, with slight modifications. Assays used 30% proteoliposomes (by volume) in a mixture containing 50 mM Tris-HCl (pH 8.0), 500 mM NaCl, 10% glycerol and 2 mM MgCl2. Proteoliposome-containing reaction mixture was incubated with drug at room temperature for 10 min, as applicable. Reactions were initiated by the addition of ATP to a final concentration of 5 mM and run at 30 °C. Aliquots (5 µl) were taken at 0, 15, 30 and 45 min. […] The amounts of Pi were determined using a colorimetric method and potassium phosphate was used as a standard. […] The absorbance at 850 nm was measured using a Spectramax Plus 384 (Molecular Devices) after 20 min. Error bars indicate the standard deviations of the average rates measured over three biological replicates.

[4] = system: LptB2FGC; test: ATPase assay (molybdate), LptB2FGC proteoliposomes; format: biochemical, Acinetobacter baylyi; conditions: for Effect on ATPase activity: LptB2FGC liposomes, in presence of LPS
Experimental: as §1
ATPase assays were done using a modified molybdate method, as previously reported, with slight modifications. Assays used 30% proteoliposomes (by volume) in a mixture containing 50 mM Tris-HCl (pH 8.0), 500 mM NaCl, 10% glycerol and 2 mM MgCl2. Proteoliposome-containing reaction mixture was incubated with drug at room temperature for 10 min, as applicable. Reactions were initiated by the addition of ATP to a final concentration of 5 mM and run at 30 °C. Aliquots (5 µl) were taken at 0, 15, 30 and 45 min. Reactions were quenched with an equal volume of 12% SDS. The amounts of Pi were determined using a colorimetric method and potassium phosphate was used as a standard. Reagents were obtained from Sigma-Aldrich. After the addition of SDS, a mixture containing 10 µl of 30 mg ml^−1 of ascorbic acid, 0.5 N HCl, 5 mg ml^−1 of ammonium molybdate and 6% SDS was added. The samples were incubated at room temperature for 7 min and 15 µl of an aqueous solution containing 20 mg ml^−1 of sodium citrate tribasic dihydrate, 2 mg ml^−^1 of sodium arsenite and 2% (vol/vol) acetic acid was added. The absorbance at 850 nm was measured using a Spectramax Plus 384 (Molecular Devices) after 20 min. Error bars indicate the standard deviations of the average rates measured over three biological replicates.

[5] = system: LptB2FG-ΔTM-C; test: ATPase assay (molybdate), LptB2FG-ΔTM-C proteoliposomes; format: biochemical, Acinetobacter baylyi; conditions: LptB2FG-ΔTM-C liposomes, in presence of LPS

Chain of His-tagged LptB2FG (ablLptB2FG) in the presence of LPS (Q6FFD6 entry or part of it): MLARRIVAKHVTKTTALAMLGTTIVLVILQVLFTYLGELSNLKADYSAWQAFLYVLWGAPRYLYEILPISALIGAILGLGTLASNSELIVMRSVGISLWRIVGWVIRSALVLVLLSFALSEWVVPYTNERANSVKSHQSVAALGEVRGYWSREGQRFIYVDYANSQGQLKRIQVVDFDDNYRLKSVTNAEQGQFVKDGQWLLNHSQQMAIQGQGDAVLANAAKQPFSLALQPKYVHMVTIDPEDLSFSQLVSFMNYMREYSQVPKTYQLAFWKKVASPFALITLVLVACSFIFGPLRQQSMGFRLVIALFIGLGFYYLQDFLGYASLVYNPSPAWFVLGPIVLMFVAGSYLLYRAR
Chain of His-tagged LptB2FG (ablLptB2FG) in the presence of LPS (Q6FC66 entry or part of it, further chain): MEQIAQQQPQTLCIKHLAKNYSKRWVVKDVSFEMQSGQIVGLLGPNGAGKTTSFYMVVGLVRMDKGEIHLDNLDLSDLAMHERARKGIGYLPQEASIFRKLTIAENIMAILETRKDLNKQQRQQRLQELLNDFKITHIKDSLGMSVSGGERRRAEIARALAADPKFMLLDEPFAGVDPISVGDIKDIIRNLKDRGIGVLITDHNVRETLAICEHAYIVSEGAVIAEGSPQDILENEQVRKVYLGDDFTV
Chain of His-tagged LptB2FG (ablLptB2FG) in the presence of LPS (Q6FFD7 entry or part of it): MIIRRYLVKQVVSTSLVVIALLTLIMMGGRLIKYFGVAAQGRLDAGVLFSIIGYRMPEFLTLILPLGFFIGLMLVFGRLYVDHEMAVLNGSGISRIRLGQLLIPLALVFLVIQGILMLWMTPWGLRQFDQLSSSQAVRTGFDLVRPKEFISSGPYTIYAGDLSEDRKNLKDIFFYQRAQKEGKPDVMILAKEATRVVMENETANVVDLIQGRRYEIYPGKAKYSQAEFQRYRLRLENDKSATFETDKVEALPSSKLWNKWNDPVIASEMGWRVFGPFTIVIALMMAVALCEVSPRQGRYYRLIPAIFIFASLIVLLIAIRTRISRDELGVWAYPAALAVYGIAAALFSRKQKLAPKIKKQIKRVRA

| Structure (SMILES) | Ki [1] [nM] | Inhibition of LPS transport to LptA [2] | Effect on ATPase activity [3] | Effect on ATPase activity [4] | Effect on ATPase activity [5] | Effect on ATPase activity with ΔLpxM LPS ([4]; LptB2FGC liposomes with LPS isolated from a ΔLpxM strain) |
| --- | --- | --- | --- | --- | --- | --- |
| CN1C(=O)[C@H](CCCCN)NC(=O)[C@H](CCCN)NCc2cccnc2Sc2c(Cl)ccc(Cl)c2CNC(=O)[C@@H]1Cc1c[nH]c2ccccc12 [Compound 3] | 56 | inhibited | increases the ATPase activity | does not affect the ATPase | increases the ATPase activity | – |
| CN1C(=O)[C@H](CCCCN)NC(=O)[C@H](CCCN)NCc2cccnc2Sc2cccc(-c3ccc(C(=O)O)cc3)c2CNC(=O)[C@@H]1Cc1c[nH]c2ccccc12 [Compound 2, Zosurabalpin] | 35 | inhibited | increases the ATPase activity | increases the ATPase activity | increases the ATPase activity | – |
| CN1C(=O)[C@H](CCCCN)NC(=O)[C@H](CCCN)NCc2cccnc2Sc2c(Cl)ccc(-c3ccc(N)nc3)c2CNC(=O)[C@@H]1Cc1c[nH]c2ccccc12 [Compound 1] | 35 | inhibited | increases the ATPase activity | increases the ATPase activity | increases the ATPase activity | resistant |
